In patent US20200277373A1, “ANTI-TREM2 ANTIBODIES AND METHODS OF USE THEREOF” (Denali Therapeutics Inc., priority 2017, published 2020):

What was measured:
Assay type in all cases: cell-based
R47H TREM2 mutant = target: T1, R47H TREM2 mutant (Homo sapiens, UniProt Q9NZC2, R47H); experiment: Liposome stimulation pSyk AlphaLISA, HEK293 overexpressing TREM2-R47H and DAP12; conditions: liposomes 30% lipid/70% PC (KLA 10%/90%), fold change over HBSS
T1 construct: expressed in transfected cells
Protocol: (§1) Lipids were purchased from Avanti Polar Lipids (Alabaster, Ala.) or Echelon Biosciences (Salt Lake City, Utah). Each screened lipid was resuspended in chloroform and added at 30 mole percent composition to 70 mole percent phosphatidylcholine (PC; 1,2-dioleoyl-sn-glycero-3-phosphocholine, Avanti Polar Lipids). Kdo2-Lipid A was added at a 10 mole percent composition with 90 mole percent PC. Lipid mixes were dried under nitrogen gas and resuspended in HBSS at a concentration of 4 mg/mL. Mixes were vortexed or briefly sonicated until resuspended, then bath sonicated for 1-5 minutes. Liposomes were used for 1-2 weeks. 3 independent batches of liposomes were used in experiments.
(§2) HEK293 cell lines overexpressing TREM2 and DAP12, mutant TREM2-R47H and DAP12, or DAP12 alone were plated in 96-well PDL-coated plates at a density of 40,000 cells per well and cultured for 36-48 hours until 90-100% confluent.
(§3) Cell culture medium was removed and cells were washed once with 200ul HBSS. Liposomes were diluted in HBSS in concentrations ranging from 0.03125 mg/mL to 2 mg/mL, then 50 μl was added to wells in 2-3 technical replicates per plate. Each plate contained HBSS negative control wells, 100% PC liposome control, 5 μg/mL agonist anti-TREM2 positive control (Abnova; Taiwan; # MAB2056), and 5 μg/mL mouse IgG3 isotype control (R&D Systems; Minneapolis, Minn.; # MAB007). Stimuli were incubated with cells for 5 minutes at 37° C., 5% CO2, liposomes were removed, and plates were frozen at −80° C.
(§4) Cells were lysed for 30 minutes to 1 hour on ice in 50 ul/well Cell Lysis Buffer (Cell Signaling Technology; Danvers, Mass.; #9803) with 1 mM PMSF. AlphaLISA SureFire Ultra p-Syk Tyr525/526 assay kit (PerkinElmer, ALSU-PSYK-A10OK) was used to measure pSyk levels in lysate as per manufacturer protocol. 10 μl lysate was added to 384-well OptiPlates (PerkinElmer; #6007290) and an EnVision Multilabel Plate Reader (PerkinElmer) was used to measure AlphaLISA fluorescence.
(§5) PSyk AlphaLISA fluorescence was converted to a log 2 scale. Fluorescence values from liposomes and controls were each subtracted from average fluorescence values from HBSS stimulated wells on the same plate (log 2(liposome)−log 2(HBSSave)=log 2(signal)). The result was converted back to a standard scale to measure fold change (2^log 2(signal)=fold change). Technical replicate fold changes values were averaged to obtain the fold change over background listed (pSyk FOB). Graphs represent values from independent experiments or individual human donors. Results from the screen on the HEK293 overexpressing cell lines are shown in Table 9 below and in FIG. 8A-8B. HEK293 results showing specificity for TREM2 over DAP12 expressed alone can be used to extrapolate which lipid species are likely acting as TREM2 ligands on human macrophages.

[1] = test system: primary human macrophages; experiment: Liposome stimulation pSyk AlphaLISA, primary human macrophages; conditions: liposomes 30% lipid/70% PC (KLA 10%/90%)
Protocol: as §1
10 mL human blood was obtained from Blood Centers of the Pacific. Monocytes were extracted using RosetteSep Human Monocyte Enrichment Cocktail ([…] Technologies Inc.; Vancouver, BC; #15068) as per manufacturer protocols. Density gradient was performed with Ficoll-Paque Premium (GE Healthcare Life Sciences; Pittsburgh, Pa.; #17-5442-02). Isolated monocytes were resuspended at ˜1-1.3 million cells/mL and cultured for 5-6 days in RPMI, 10% Hyclone Fetal Bovine Serum, and penicillin/streptomycin supplemented with 50 ng/mL human M-CSF (Gibco, # PHC9501) in T175 tissue culture treated flasks. M-CSF was replenished every 2-3 days. Cells were washed once with PBS, 15 mL fresh medium was added, and cells were harvested by scraping. Cells were cultured overnight at a density of 100,000 cells per well on tissue culture treated 96-well plates supplemented with 10-25 ng/mL M-CSF.
as §3, §4, §5

DAP12 alone = target: T2, DAP12 alone (Homo sapiens, UniProt O43914); experiment: Liposome stimulation pSyk AlphaLISA, HEK293 expressing DAP12 alone; conditions: liposomes 30% lipid/70% PC (KLA 10%/90%), fold change over HBSS
T2 construct: expressed in transfected cells
Protocol: as §1, §2, §3, §4, §5

TREM2 = target: T3, TREM2 (Homo sapiens, UniProt Q9NZC2); experiment: Liposome stimulation pSyk AlphaLISA, HEK293 overexpressing TREM2 and DAP12; conditions: liposomes 30% lipid/70% PC (KLA 10%/90%), fold change over HBSS
T3 construct: expressed in transfected cells
Protocol: as §1, §2, §3, §4, §5

T2 sequence (O43914 22-113): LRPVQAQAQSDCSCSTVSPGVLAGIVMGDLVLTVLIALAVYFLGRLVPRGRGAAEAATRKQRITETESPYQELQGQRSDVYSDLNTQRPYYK
T3 sequence (Q9NZC2 19-230): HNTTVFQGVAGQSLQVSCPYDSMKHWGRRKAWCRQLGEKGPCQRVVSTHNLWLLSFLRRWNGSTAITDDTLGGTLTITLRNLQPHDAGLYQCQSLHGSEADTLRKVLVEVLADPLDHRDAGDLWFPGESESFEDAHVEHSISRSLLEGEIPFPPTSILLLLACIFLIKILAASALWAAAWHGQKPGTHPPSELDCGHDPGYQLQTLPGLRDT
T3 sequence (O43914 22-113 partner): as the sequence (O43914 22-113) above
T1 sequence (Q9NZC2 19-230 R47H): as the sequence (Q9NZC2 19-230) above, with R29H counted along it
T1 sequence (O43914 22-113 partner): as the sequence (O43914 22-113) above

Row | Compound | R47H TREM2 mutant (pSyk FOB) (R47H TREM2 mutant) | pSyk FOB [1] | DAP12 alone (pSyk FOB) (DAP12 alone) | Human TREM2 (pSyk FOB) (TREM2)
1 | CCCCCCCC/C=C\CCCCCCCC(=O)OC[C@H](COP(=O)([O-])OCC[N+](C)(C)C)OC(=O)CCCCCCC/C=C\CCCCCCCC [100% Phosphatidylcholine (PC), 1,2-dioleoyl-sn-glycero-3-phosphocholine, reference compound] | 2.27 FOB | 1.18 FOB | 0.86 FOB | 2.01 FOB
2 | Phosphatidylglycerol [Phosphatidylglycerol (PG) or DSPG] | 3.77 FOB | 1.85 FOB | 1.40 FOB | 2.25 FOB
3 | Phosphatidylserine [Phosphatidylserine (PS)] | 2.65 FOB | 2.09 FOB | 1.27 FOB | 2.42 FOB
4 | N-Acyl-Serine [N-Acyl-Serine (NSer)] | 3.76 FOB | 1.66 FOB | 1.39 FOB | 2.59 FOB
5 | Lysophosphatidylglycerol [Lysophosphatidylglycerol (LPG)] | 3.44 FOB | 1.64 FOB | 1.28 FOB | 4.83 FOB
6 | Lysophosphatidylethanolamine [LysophosphatidyLethanolamine (LPE)] | 3.58 FOB | 2.03 FOB | 1.28 FOB | 4.16 FOB
7 | C[C@H](CCCC(C)(C)O)[C@H]1CC[C@H]2[C@@H]3CC=C4C[C@@H](O)CC[C@]4(C)[C@H]3CC[C@]12C [25(S)hydroxycholesterol (25OHC), 25(S)hydroxycholesterol] | 6.27 FOB | 1.14 FOB | 1.20 FOB | 2.61 FOB
8 | CCCCCCCCCCCCC/C=C/[C@@H](O)[C@@H](N)CO [Sphingosine] | 0.85 FOB | 0.96 FOB | 1.32 FOB | 0.67 FOB
